The values that follow come from paper PMC8949931, “cADPR Does Not Activate TRPM2” (International Journal of Molecular Sciences, 2022).

The target in assay [1] is T1, drTRPM2 (TRPM2 from zebrafish) (Danio rerio, UniProt A0A0R4IMY7).
T1 construct: isolated MHR1/2 domain, residues 1-419 of drTRPM2, N-terminal His6-tag
T1 sequence (A0A0R4IMY7 1-419): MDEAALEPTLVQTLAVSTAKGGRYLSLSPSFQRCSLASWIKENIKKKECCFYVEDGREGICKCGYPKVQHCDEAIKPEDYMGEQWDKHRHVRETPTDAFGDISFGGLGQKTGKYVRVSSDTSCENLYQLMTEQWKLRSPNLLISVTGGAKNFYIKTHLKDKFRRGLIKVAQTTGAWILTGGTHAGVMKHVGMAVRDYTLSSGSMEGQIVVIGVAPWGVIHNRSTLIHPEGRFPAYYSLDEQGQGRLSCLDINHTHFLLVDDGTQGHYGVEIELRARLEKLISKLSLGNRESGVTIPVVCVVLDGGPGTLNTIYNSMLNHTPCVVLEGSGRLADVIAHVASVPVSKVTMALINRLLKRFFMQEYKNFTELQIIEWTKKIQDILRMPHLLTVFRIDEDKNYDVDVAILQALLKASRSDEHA
The experiment in a line: isothermal titration calorimetry (ITC), purified domain, […] °C. Type of assay: binding. In general terms: Isothermal titration calorimetry measures the heat released or taken up as one component is titrated into another.

The target of another assay is T2, human TRPM2 (Homo sapiens, UniProt O94759).
T2 construct: full-length channel stably expressed in HEK293 cells
T2 sequence (O94759 whole entry): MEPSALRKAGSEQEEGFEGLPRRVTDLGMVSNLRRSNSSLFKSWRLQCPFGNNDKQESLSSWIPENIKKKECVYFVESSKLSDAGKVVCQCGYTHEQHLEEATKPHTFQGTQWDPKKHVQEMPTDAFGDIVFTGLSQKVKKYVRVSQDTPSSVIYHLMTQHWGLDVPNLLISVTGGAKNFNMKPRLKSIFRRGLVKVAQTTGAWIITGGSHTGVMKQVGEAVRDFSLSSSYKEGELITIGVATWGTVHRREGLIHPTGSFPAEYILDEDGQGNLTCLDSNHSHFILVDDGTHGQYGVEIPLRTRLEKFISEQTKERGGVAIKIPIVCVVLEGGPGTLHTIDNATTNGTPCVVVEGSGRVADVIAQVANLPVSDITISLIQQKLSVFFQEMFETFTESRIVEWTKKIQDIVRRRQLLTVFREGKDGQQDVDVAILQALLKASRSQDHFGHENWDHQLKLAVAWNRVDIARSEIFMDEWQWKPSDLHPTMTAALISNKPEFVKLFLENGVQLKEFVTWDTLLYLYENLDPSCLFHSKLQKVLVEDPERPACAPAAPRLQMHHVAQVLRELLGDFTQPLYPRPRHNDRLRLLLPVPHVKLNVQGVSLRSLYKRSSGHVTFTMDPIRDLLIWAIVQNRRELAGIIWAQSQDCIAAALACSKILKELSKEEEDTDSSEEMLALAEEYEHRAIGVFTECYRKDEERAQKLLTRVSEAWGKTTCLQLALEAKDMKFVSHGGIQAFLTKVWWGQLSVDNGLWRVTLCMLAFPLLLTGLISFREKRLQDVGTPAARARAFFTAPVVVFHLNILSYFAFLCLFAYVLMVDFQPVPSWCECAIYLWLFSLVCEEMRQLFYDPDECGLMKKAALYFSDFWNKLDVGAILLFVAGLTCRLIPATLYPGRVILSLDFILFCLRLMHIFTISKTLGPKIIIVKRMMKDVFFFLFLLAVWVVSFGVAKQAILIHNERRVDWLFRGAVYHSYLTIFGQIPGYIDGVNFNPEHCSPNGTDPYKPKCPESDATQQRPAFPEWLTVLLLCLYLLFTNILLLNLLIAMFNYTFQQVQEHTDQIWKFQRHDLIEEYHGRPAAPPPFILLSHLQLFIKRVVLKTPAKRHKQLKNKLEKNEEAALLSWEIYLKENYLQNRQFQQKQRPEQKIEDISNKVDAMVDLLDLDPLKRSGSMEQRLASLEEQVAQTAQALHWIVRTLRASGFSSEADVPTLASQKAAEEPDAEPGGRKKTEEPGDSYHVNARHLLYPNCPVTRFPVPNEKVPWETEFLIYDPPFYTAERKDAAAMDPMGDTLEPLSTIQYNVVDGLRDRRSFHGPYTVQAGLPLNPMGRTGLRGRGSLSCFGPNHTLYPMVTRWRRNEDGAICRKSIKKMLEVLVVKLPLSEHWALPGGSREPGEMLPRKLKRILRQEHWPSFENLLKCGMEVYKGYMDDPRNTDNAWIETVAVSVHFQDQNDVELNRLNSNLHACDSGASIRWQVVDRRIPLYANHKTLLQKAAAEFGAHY
The experiment in a line: whole-cell patch clamp, […] coinfused with […] ADPR. Type of assay: cell-based.

pKd: −log10 of the molar value.

A word on the pKd: it is −log10 of the Kd, conventionally taken in molar units. A higher pKd goes with a small Kd.

Compound `Nc1ncnc2c1ncn2[C@@H]1O[C@H](COP(=O)(O)OP(=O)(O)OC[C@H]2OC(O)[C@H](O)[C@@H]2O)[C@@H](O)[C@H]1O` (stereo partly drawn) [ADPR] showed a pKd in assay [1] of 5.66.
In assay [1], `Nc1ncnc2c1nc(Br)n2[C@@H]1O[C@H](COP(=O)(O)OP(=O)(O)OC[C@H]2OC(O)[C@H](O)[C@@H]2O)[C@@H](O)[C@H]1O` (stereo partly drawn) [8-Br-ADPR] showed a pKd of 5.85. The “whole-cell patch clamp, 1 mM coinfused with 125 μM ADPR” value on human TRPM2 was 8-Br-ADPR and 8-Br-cADPR reduce the ADPR-induced current in TRPM2-expressing HEK293 cells.
